Legend:
[1] = molecular target: T1, GenS2 (Micromonospora echinospora, UniProt Q70KD4); experiment: LC-ESI-HRMS of […]″-deamination; assay type: biochemical; settings: 2-oxoglutarate 1 mM as amino acceptor, Tris-HCl pH 7.5, 30°C; reverse reaction; GenS2 alone
T1 construct: gene gtmD; full length, N-terminal His6 tag (pET28a), initiator Met lost, tag kept; E. coli BL21(DE3)

[2] = molecular target: T2, GenD2 (Micromonospora echinospora, UniProt Q70KD1); experiment: coupled reverse reaction from kanamycin B, LC-ESI-HRMS; assay type: biochemical; settings: NADH or NADPH 2.5 mM; ketone generated in situ by GenS2 with 2-oxoglutarate; Tris-HCl pH 7.5, 30°C
T2 construct: gene gtmC; full length, N-terminal His6 tag (pET28a), initiator Met lost, tag kept; E. coli BL21(DE3); 38,533 Da (calc. 38,539)

[3] = substrate: NC[C@H]1O[C@H](O[C@H]2[C@H](O)[C@@H](O[C@H]3O[C@H](CO)[C@@H](O)[C@H](N)[C@H]3O)[C@H](N)C[C@@H]2N)[C@H](N)[C@@H](O)[C@@H]1O; experiment: SAM-dependent N-methylation kinetics (details in supplement); assay type: biochemical, Micromonospora echinospora; settings: co-substrate SAM; 3″-N-methylation

T1 sequence (Q70KD4 2-418): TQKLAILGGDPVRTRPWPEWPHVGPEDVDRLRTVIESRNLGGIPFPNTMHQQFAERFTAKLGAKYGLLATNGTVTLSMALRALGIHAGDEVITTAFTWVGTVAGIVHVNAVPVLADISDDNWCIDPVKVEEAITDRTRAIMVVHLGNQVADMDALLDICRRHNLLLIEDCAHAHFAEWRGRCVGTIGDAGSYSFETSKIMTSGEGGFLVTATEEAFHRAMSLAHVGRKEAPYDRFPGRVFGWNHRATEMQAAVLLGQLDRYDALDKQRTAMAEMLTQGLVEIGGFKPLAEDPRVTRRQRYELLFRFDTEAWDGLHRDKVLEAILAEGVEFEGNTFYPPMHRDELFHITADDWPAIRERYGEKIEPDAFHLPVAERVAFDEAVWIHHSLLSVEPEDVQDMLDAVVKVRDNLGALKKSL
T2 sequence (Q70KD1 entry or part of it): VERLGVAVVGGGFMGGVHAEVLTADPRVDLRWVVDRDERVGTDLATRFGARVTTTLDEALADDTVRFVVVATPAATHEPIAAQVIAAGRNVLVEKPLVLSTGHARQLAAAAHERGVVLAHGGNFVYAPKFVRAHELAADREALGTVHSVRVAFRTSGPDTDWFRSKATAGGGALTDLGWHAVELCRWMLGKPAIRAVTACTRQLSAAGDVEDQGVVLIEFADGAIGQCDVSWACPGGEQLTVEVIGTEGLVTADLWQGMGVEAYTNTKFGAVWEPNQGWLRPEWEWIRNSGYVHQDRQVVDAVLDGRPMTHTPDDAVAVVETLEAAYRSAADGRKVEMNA

NC[C@H]1O[C@H](O[C@H]2[C@H](O)[C@@H](O[C@H]3O[C@H](CO)[C@@H](O)[C@H](N)[C@H]3O)[C@H](N)C[C@@H]2N)[C@H](N)[C@@H](O)[C@@H]1O [compound 11, kanamycin B] was tested, and the “LC-ESI-HRMS of 3′′-deamination” value [1] was “LC-ESI-HRMS analysis showed that GenS2 catalyzed low-level deamination of both compounds”.

In the case of NC[C@H]1O[C@H](O[C@H]2[C@H](O)[C@@H](O[C@H]3O[C@H](CO)[C@@H](O)[C@H](N)[C@H]3O)[C@H](N)C[C@@H]2N)[C@H](N)C[C@@H]1O [compound 12, tobramycin], the “LC-ESI-HRMS of 3′′-deamination” value [1] is reported as “LC-ESI-HRMS analysis showed that GenS2 catalyzed low-level deamination of both compounds”.

With NC[C@H]1O[C@H](O[C@H]2[C@H](O)[C@@H](O[C@H]3O[C@H](CO)[C@@H](O)C(=O)[C@H]3O)[C@H](N)C[C@@H]2N)[C@H](N)[C@@H](O)[C@@H]1O [compound 13, 3″-deamino-3″-oxo-kanamycin B] the “coupled reverse reaction from kanamycin B, LC-ESI-HRMS” value [2] was “in the presence of GenS2 and GenD2 (and either NADH or NADPH) essentially quantitative yields”.

B1: GenN (Micromonospora echinospora) (protein)
chain: IVGGSTIQPERVDAAALRQLGDAMRKVVGSADPTPLADLLSGTPVDPDELTREVGADGRQALLDSGMAVDDGTTFSSPLRGHQLHGVVVLSDPDVEEEVQHRWYVDPLWEADLLIRLMLRRGGARALDMGCGSGVLSLVLADRYESVLGVDVNPRAVALSRLNAALNGLTNVTFREGDMFEPAEGRFSRIVFNSPTNEEGNEFVDLLEAGEPILETFFRNVPRKLESGGIVEVNLAMNDYPGDPFRERLADWLGLTENGLRVQIFTSQRRATESGGEWKRGWLVVAPGPVGLTEVEWPYHDRYEEDPDALLDGTDRLLRG
notes: full length, N-terminal His6 tag (pET28a), initiator Met lost, tag kept; E. coli BL21(DE3)
B1 gave a Km [3] of 34 ± 3.8 µM and a kcat [3] of 1.93 ± 0.1 s⁻¹.

Source: PMC4340712, “Delineating the Biosynthesis of Gentamicin X2, the Common Precursor of the Gentamicin C Antibiotic Complex” (Chemistry & Biology, 2015)
